Ends that are not written are not given here.
Tests used:
Aβ42 [1] = biological target: T1, Aβ42 (Homo sapiens, UniProt P05067); conditions: equivalent molar concentration, after 8 h of incubation, Thioflavin T-binding assay; cited from earlier work
T1 construct: the plate was incubated with various concentrations of Aβ1–28, Aβ40, or Aβ42 (Peptide Institute); purchased Peptide Institute

Aβ1–28 = assay: ELISA binding between Aβ and LME peptides; conditions: LME-tet (8.3 µM) or LME-mono (33 µM) applied on plate, Aβ 2 h at room temperature, n = 3
Description: (§1) The indicated amounts of LME-tet (8.3 µM) or LME-mono (33 µM) were applied onto each well of a regular 96-well ELISA plate (Thermo Fisher Scientific) and incubated overnight for 24 h. After blocking, the plate was incubated with various concentrations of Aβ1–28, Aβ40, or Aβ42 (Peptide Institute) for 2 h at room temperature. Bound Aβ was detected using mouse monoclonal anti-human Aβ antibody 82E1 (Immuno-Biological Laboratories Co., Ltd.) and HRP-conjugated horse anti-mouse IgG antibody (Cell Signaling Technology).

Aβ40 = biological target: T2, Aβ40 (Homo sapiens, UniProt P05067); assay: ELISA binding between Aβ and LME peptides; conditions: LME-mono (33 µM) applied on plate, n = 4
T2 construct: purchased Peptide Institute
Description: as §1

Aβ42 [2] = biological target: T1, Aβ42; assay: ELISA binding between Aβ and LME peptides; conditions: LME-mono (33 µM) applied on plate, n = 3
Description: as §1

[3] = system: 7WD10 Chinse Hamster Ovary (CHO) cells stably expressing human APP; assay: Aβ production in 7WD10 cells, western blot of culture medium and cell lysates; assay type: cell-based, Chinese Hamster; conditions: 48 h, tetravalent peptides 50 µM, LME-mono 100 and 200 µM, n = 3
Description: 7WD10 Chinse Hamster Ovary (CHO) cells were treated with each tetravalent peptide (50 µM) for 48 h; cell lysates (for intracellular C99 and Aβ) and culture medium (for extracellular Aβ) from peptide-treated and vehicle control-treated cells were analyzed by western blot. Data are graphed as the percentage of the control value, showing the mean ± SE; n = 3. Significance vs. vehicle was calculated by analysis of variance (ANOVA), followed by one-sided Dunnett’s test; *P < 0.05, **P < 0.01. c Effect of increasing concentrations of LME-tet on Aβ production (left panel). 7WD10 cells were treated with vehicle control or LME-tet at the indicated concentrations for 48 h, and the culture medium was analyzed by western blot. Data are graphed as the percentage of the control value, showing the mean ± SE; n = 3. Significance vs. vehicle was calculated by ANOVA, followed by one-sided Dunnett’s test; *P < 0.05, **P < 0.01. Effect of LME-mono on Aβ production (right panels). 7WD10 cells were treated with vehicle control or LME-mono at the indicated concentrations for 48 h; cell lysates (for intracellular C99 and Aβ) and culture medium (for extracellular Aβ) were analyzed by western blot. […] Significance vs. vehicle was calculated by ANOVA, followed by one-sided Dunnett’s test; *P < 0.05. d Binding of LME-tet and LME-mono to Aβ1-28, Aβ40 and Aβ42 was measured by enzyme-linked immunosorbent assay (ELISA). […]

7WD10 cells = assay: Lysosomal protease inhibitor treatment of 7WD10 cells, western blot; assay type: cell-based, Chinese Hamster; conditions: LME-tet (25 µM) or LME-mono (100 µM), lysosomal PI cocktail (E-64, leupeptin), 48 h
Aβ42 [4] = biological target: T1, Aβ42; assay: Circular dichroism spectroscopy of Aβ42 conformational change; conditions: Aβ42 20 µM, peptide 2 µM, 50 mM sodium phosphate buffer pH 7.4, 37 °C, far-UV CD, molar ellipticity at 217 nm
Description: Fig. 5 LME-tet inhibits the conformational change and subsequent fibrillation of Aβ42. a Binding of LME-tet to extracellular Aβ. Culture medium from 7WD10 cells recovered after 48 h of growth was treated with biotinylated LME-tet (50 µM) or LME-mono (200 µM). Medium was then incubated with streptavidin beads, and coprecipitating Aβ40 and Aβ42 were analyzed by western blot using anti-Aβ or anti-Aβ42-specific antibody. b Time-dependent conformational change in Aβ42 (20 µM) in the presence of LME-tet (2 µM, lower left panel) or LME-mono (2 µM, upper right panel). Far-UV circular dichroism (CD) spectra (wavelength 190–250 nm) were measured at the indicated time points. […] Data represent the mean ± SE; n = 3–4. c Fibrillation profiles of Aβ42 in the presence of LME-tet (2 µM) or LME-mono (2 µM), measured by Thioflavin T-binding assay. […] Data represent the mean ± SE; n = 3. d Fibrillation profiles of Aβ42 in the presence of LME-tet (2 µM) or LME-mono (2 µM), analyzed by electron microscopy; representative images at ×10 K, ×50 K, and ×200 K magnification (left, right, and center, respectively) are shown. Scale bars indicate 2 µm, 400 nm, and 100 nm, respectively. e Effects of LME-tet (2 µM) on growth of Aβ42 fibril in the presence of 2% (v/v) Aβ42 fibril-seed, measured by the Thioflavin T-binding assay. […]

T1 sequence (P05067 672-713 limits assumed): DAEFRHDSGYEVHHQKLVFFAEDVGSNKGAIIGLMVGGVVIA
T2 sequence (P05067 672-711 limits assumed): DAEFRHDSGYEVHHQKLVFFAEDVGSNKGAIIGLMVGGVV

In the case of Ac-KL-NVF-NFA-NH2, the “inhibition of fibrillation of Aβ42” value (Aβ42 [1]) is listed as 40%.

For “PKLRMKE [LME-mono, monomeric peptide with the same motif, Pro-Lys-Leu-Arg-Met-Lys-Glu]”, the “binding to Aβ1–28” value (Aβ1–28) was “unable to bind”, the “binding to Aβ40” value (Aβ40) was “unable to bind” and the “binding to Aβ42” value (Aβ42 [2]) was “unable to bind”. The “inhibitory effect on production of Aβ” value [3] was “has no effect”, the “PI-dependent increase of intracellular APP, C99, Aβ, p62 and LC3-II” value (7WD10 cells) was “does not affect” and the “conformational change of Aβ42 (β-sheet formation)” value (Aβ42 [4]) was “no effect was observed”.

Source: paper PMC10082830, “A tailored tetravalent peptide displays dual functions to inhibit amyloid β production and aggregation” (Communications Biology, 2023)
